The values that follow come from patent US12492173B2, “Herbicidal substituted N-tetrazolyl aryl carboxamides” (Bayer Aktiengesellschaft, priority 2019, dated 2025).

Common to all, as to assay type: in vivo
Assay [1] relates to Lolium multiflorum. As to the kind of experiment: Pre-emergence herbicidal action, LOLMU. The following applies: for herbicidal activity LOLMU: dosage 320 g/ha, scored visually after 3 weeks vs untreated controls (100% = plants have died). In outline: (§1)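 Visual scoring after 3 weeks in the greenhouse, relative to untreated pots, gave percent activity, where 100% means dead plants and 0% equals controls. Treatment was a pre-emergence soil-surface spray of WP or EC formulations in water (600 to 800 l/ha, 0.2% wetting agent) over seeds covered in sandy loam.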

For the next assay, the system named is Pharbitis purpurea. Briefly: Pre-emergence herbicidal action, PHBPU. Particulars: for herbicidal activity PHBPU: dosage 320 g/ha, scored visually after 3 weeks vs untreated controls (100% = plants have died). The method, boiled down: as §1
In another assay the test system is Amaranthus retroflexus. As to the kind of experiment: Post-emergence herbicidal action, AMARE. The arrangement: key: % herbicidal action vs untreated; 100 = plants died, 0 = like control. In outline: (§2)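 Percent herbicidal effect was rated visually about 3 weeks after treatment, relative to untreated plants (0% = like control, 100% = dead). Compounds, formulated as WP or EC, went on as aqueous spray (600–800 l/ha, 0.2% wetting agent) to one-leaf-stage plants 2–3 weeks post-sowing in sandy loam.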

Assay [2] has as its system Cyperus esculentus. As to the kind of experiment: Pre-emergence herbicidal action, CYPES. Further details: key: % activity: 100 = plants have died, 0 = like control plants. The following applies: comparative experiment, 20 g of a.i./ha. In outline: as §1
Assay [3] deals with Lolium multiflorum. Briefly: Post-emergence herbicidal action, LOLMU. Further details: key: % herbicidal action: 100 = plants died, 0 = like control. Particulars: post-emergence, dosage 80 g/ha. The method, boiled down: as §2
Assay [4] relates to Cyperus esculentus. Briefly: Post-emergence herbicidal action, CYPES. The arrangement: key: % herbicidal action vs untreated; 100 = plants died, 0 = like control. The following applies: post-emergence; for Herbicidal action against CYPES: comparative experiment, 5 g of a.i./ha; for herbicidal action CYPES: dosage 80 g/ha. The method, boiled down:
as §2

For a further assay, the system named is Polygonum convolvulus. As to the kind of experiment: Post-emergence herbicidal action, POLCO. In outline: as §2
[5] abbreviates: comparative experiment, post-emergence, 5 g of a.i./ha.
Setting [6] is: comparative experiment, 20 g of a.i./ha.

Turning to `Cn1nnnc1NC(=O)c1ccc(C(F)(F)F)c(CS(C)(=O)=O)c1Cl` [Example 1-298], the “herbicidal activity LOLMU” value with Lolium multiflorum [1] came to 90%. The “herbicidal activity PHBPU” value in the assay on Pharbitis purpurea worked out at 90%. Further, the “Herbicidal action against AMARE” value in the assay with Amaranthus retroflexus (setting [5]) worked out at 100. Further, in the assay on Amaranthus retroflexus (post-emergence, dosage 80 g/ha), the “herbicidal action AMARE” value was 100%. In addition, the “Herbicidal action against CYPES” value was determined as 100 with Cyperus esculentus [2] and 60 in the assay with Cyperus esculentus [4]. The “herbicidal action LOLMU” value in the assay with Lolium multiflorum [3] turned out to be 80%. In addition, the “herbicidal action CYPES” value in the assay with Cyperus esculentus [4] is recorded as 90%. In addition, the “Herbicidal action against POLCO” value in the assay with Polygonum convolvulus (setting [5]) came to 60. In addition, the “herbicidal action POLCO” value with Polygonum convolvulus (post-emergence, dosage 80 g/ha) came to 90%.

With `COc1c(C(=O)Nc2nnnn2C)ccc(C(F)(F)F)c1CSC` [Example 1-134], in the assay on Pharbitis purpurea (setting [6]), the “Herbicidal action against PHBPU” value is reported as 20. Besides, the “herbicidal activity PHBPU” value in the assay with Pharbitis purpurea came out at 80%. For the same compound, the “herbicidal action AMARE” value with Amaranthus retroflexus (Dosage 80 g/ha) turned out to be 100. In the assay on Amaranthus retroflexus (post-emergence, dosage 80 g/ha), the “Herbicidal action against AMARE” value was 100. For the same compound, the “Herbicidal action against CYPES” value with Cyperus esculentus [2] is reported as 50. Also, the “herbicidal action POLCO” value in the assay on Polygonum convolvulus (Dosage 80 g/ha) came out at 90. In addition, the “Herbicidal action against POLCO” value in the assay on Polygonum convolvulus (post-emergence, dosage 80 g/ha) was 80.

With `CSCc1c(C(F)(F)F)ccc(C(=O)Nc2nnnn2C)c1Br` [Example 1-380], the “herbicidal activity PHBPU” value with Pharbitis purpurea is listed as 80%. Moreover, the “herbicidal action AMARE” value with Amaranthus retroflexus (post-emergence, dosage 80 g/ha) worked out at 80%. Besides, the “Herbicidal action against CYPES” value in the assay with Cyperus esculentus [2] stood at 60. Besides, in the assay on Lolium multiflorum [3], the “herbicidal action LOLMU” value was 100%. In addition, in the assay with Polygonum convolvulus (post-emergence, dosage 80 g/ha), the “herbicidal action POLCO” value amounted to 90%.

In the case of `Cn1nnnc1NC(=O)c1ccc(C(F)(F)F)c(C[S+](C)[O-])c1Cl` (racemic) [Example 1-297], the “Herbicidal action against LOLMU” value with Lolium multiflorum [1] (setting [6]) is 30. In addition, the “herbicidal activity LOLMU” value in the assay with Lolium multiflorum [1] stood at 100%. In addition, the “herbicidal activity PHBPU” value in the assay on Pharbitis purpurea amounted to 90%. Moreover, the “herbicidal action AMARE” value with Amaranthus retroflexus (post-emergence, dosage 80 g/ha) is reported as 90%. The “Herbicidal action against CYPES” value in the assay with Cyperus esculentus [2] came to 100. In addition, the “herbicidal action LOLMU” value in the assay with Lolium multiflorum [3] turned out to be 100%. In the assay on Cyperus esculentus [4], the “Herbicidal action against CYPES” value came out at 60 and the “herbicidal action CYPES” value is listed as 80%. Further, the “herbicidal action POLCO” value in the assay with Polygonum convolvulus (post-emergence, dosage 80 g/ha) amounted to 80%.

Take `CSCc1c(C(F)(F)F)ccc(C(=O)Nc2nnnn2C)c1Cl` [Example 1-296]: the “herbicidal activity LOLMU” value in the assay with Lolium multiflorum [1] was 90%. Further, the “Herbicidal action against AMARE” value in the assay on Amaranthus retroflexus (setting [5]) is reported as 60. Besides, the “herbicidal action AMARE” value with Amaranthus retroflexus (post-emergence, dosage 80 g/ha) is 100%. For the same compound, the “herbicidal action LOLMU” value with Lolium multiflorum [3] was determined as 90%. Moreover, the “herbicidal action CYPES” value in the assay with Cyperus esculentus [4] is listed as 90%.
